Assay results taken from patent US8318758B2, “5-fluoro-2-oxopyrimidine-1(2H)-carboxylate derivatives” (Dow AgroSciences, LLC, priority 2009, dated 2012).
Where two headings read alike, the source gives them in different places.

Experiments:
[1] = tested on: Mycosphaerella graminicola; anamorph: Septoria tritici; Bayer code SEPTTR; assay: Fungicidal activity: leaf blotch of wheat, one-day protectant and three-day curative tests on wheat plants; assay type: in vivo, Septoria tritici on wheat plants (variety Yuma); conditions: Zymoseptoria tritici
Method: Evaluation of Fungicidal Activity: Leaf Blotch of Wheat (Mycosphaerella graminicola; anamorph: Septoria tritici; Bayer code […]) Wheat plants (variety Yuma) were grown from seed in a greenhouse in 50% mineral soil/50% soil-less Metro mix until the first leaf was fully emerged, with 7-10 seedlings per pot. These plants were inoculated with an aqueous spore suspension of Septoria tritici either prior to or after fungicide treatments. After inoculation the plants were kept in 100% relative humidity (one day in a dark dew chamber followed by two to three days in a lighted dew chamber) to permit spores to germinate and infect the leaf. The plants were then transferred to a greenhouse for disease to develop. The following table presents the activity of typical compounds of the present disclosure when evaluated in these experiments. The effectiveness of the test compounds in controlling disease was determined by assessing the severity of disease on treated plants, then converting the severity to percent control based on the level of disease on untreated, inoculated plants.

[2] = 24 h, read-out: SEPTTR 100 PPM 1DP (% disease control rating)
[3] = 72 h, read-out: SEPTTR 100 PPM 3DC (% disease control rating)
[4] = 24 h, One-Day Protectant (1DP), 100 ppm, wheat plants, percent control relative to untreated, inoculated plants, read-out: SEPTTR 100 PPM 1DP (% disease control rating)
[5] = 72 h, Three-Day Curative (3DC), 100 ppm, wheat plants, percent control relative to untreated, inoculated plants, read-out: SEPTTR 100 PPM 3DC (% disease control rating)

| melting point | SMILES | pest or weed control at 100 ppm [1, 2] | pest or weed control at 100 ppm [1, 3] | pest or weed control at 100 ppm [1, 4] | pest or weed control at 100 ppm [1, 5] |
| --- | --- | --- | --- | --- | --- |
| 172.4 to 173.6 °C | COc1ccc(OC(=O)n2cc(F)c(N)nc2=O)cc1 [Compound 6] |  |  | 76 to 100% | 76 to 100% |
| 143.2 to 146.3 °C | Nc1nc(=O)n(C(=O)Oc2ccc(Cl)cc2)cc1F [Compound 7] |  |  | 76 to 100% | 76 to 100% |
| 222.5 to 224.6 °C | Nc1nc(=O)n(C(=O)Oc2ccccc2Cl)cc1F [Compound 8] |  |  | 76 to 100% | 76 to 100% |
| 156.8 to 158.2 °C | Nc1nc(=O)n(C(=O)Oc2ccc(F)cc2)cc1F [Compound 9] |  |  | 76 to 100% | 76 to 100% |
| 235 to 237 °C | Cc1ccc(OC(=O)n2cc(F)c(N)nc2=O)cc1 [Compound 10] |  |  | 76 to 100% | 76 to 100% |
| 145.8 to 146.8 °C | Nc1nc(=O)n(C(=O)OCc2ccccc2Cl)cc1F [Compound 11] |  |  | 76 to 100% | 76 to 100% |
| 142.8 to 145.1 °C | Nc1nc(=O)n(C(=O)OCCOCc2ccccc2)cc1F [Compound 12] |  |  | 76 to 100% | 76 to 100% |
| 240 to 243 °C | COC(=O)n1cc(F)c(N)nc1=O [Compound 13] |  |  | 76 to 100% | 76 to 100% |
| 145.1 to 146.3 °C | Nc1nc(=O)n(C(=O)OCCCCl)cc1F [Compound 14] |  |  | 76 to 100% | 76 to 100% |
| 94.2 to 96.3 °C | COCCOC(=O)n1cc(F)c(N)nc1=O [Compound 15] |  |  | 76 to 100% | 76 to 100% |
| 258 to 260.4 °C | C=CCOC(=O)n1cc(F)c(N)nc1=O [Compound 17] |  |  | 76 to 100% | 76 to 100% |
| 165.8 to 168.1 °C | Nc1nc(=O)n(C(=O)Oc2ccc3ccccc3c2)cc1F [Compound 18] |  |  | 76 to 100% | 76 to 100% |
| 125.9 to 128.2 °C | CCCCCOC(=O)n1cc(F)c(N)nc1=O [Compound 19] |  |  | 76 to 100% | 76 to 100% |
| 139.8 to 140.6 °C | Nc1nc(=O)n(C(=O)OC2CCCC2)cc1F [Compound 20] |  |  | 76 to 100% | 76 to 100% |
| 113 to 116 °C | Nc1nc(=O)n(C(=S)Oc2ccccc2)cc1F [Compound 21, O-phenyl 4-amino-5-fluoro-2-oxopyrimidine-1(2H)-carbothioate] |  |  | 76 to 100% | 76 to 100% |
| 123.2 to 124.3 °C | CN(C)/C=N/c1nc(=O)n(C(=O)OCc2ccccc2)cc1F [Compound 23] |  |  |  |  |
| 179 to 181.2 °C | Cc1ccc(OC(=O)n2cc(F)c(/N=C/N(C)C)nc2=O)cc1 [Compound 24] |  |  |  |  |
| 103.5 to 104.6 °C | CN(C)/C=N/c1nc(=O)n(C(=O)OC2CCCC2)cc1F [Compound 26] |  |  |  |  |

| SMILES | melting point | pest or weed control at 100 ppm [1, 2] | pest or weed control at 100 ppm [1, 3] | pest or weed control at 100 ppm [1, 4] | pest or weed control at 100 ppm [1, 5] |
| --- | --- | --- | --- | --- | --- |
| CN(C)/C=N/c1nc(=O)n(C(=O)OCC(C)(C)C)cc1F [Compound 1, 4-(dimethylamino-methyleneamino)-5-fluoro-2-oxo-2H-pyrimidine-1-carboxylic acid 2,2-dimethyl-propyl ester] | 162 to 164 °C | 76 to 100% | 76 to 100% |  |  |
| Nc1nc(=O)n(C(=O)OCc2ccccc2)cc1F [Compound 2, benzyl 4-amino-5-fluoro-2-oxopyrimidine-1(2H)-carboxylate] | 212 to 215 °C | 76 to 100% | 76 to 100% |  |  |
| CCOC(=O)n1cc(F)c(N)nc1=O [Compound 3, ethyl 4-amino-5-fluoro-2-oxopyrimidine-1(2H)-carboxylate] | 190 to 193 °C | 76 to 100% | 76 to 100% |  |  |
| CC(C)OC(=O)n1cc(F)c(N)nc1=O [Compound 4, isopropyl 4-amino-5-fluoro-2-oxopyrimidine-1(2H)-carboxylate] | 217 to 219 °C | 76 to 100% | 76 to 100% |  |  |
| Nc1nc(=O)n(C(=O)Oc2ccccc2)cc1F [Compound 5, phenyl 4-amino-5-fluoro-2-oxopyrimidine-1(2H)-carboxylate] | 175 to 180 °C | 76 to 100% | 76 to 100% |  |  |
| Nc1nc(=O)n(C(=O)OCC(Cl)(Cl)Cl)cc1F [Compound 16] | 219.3 to 221.1 °C |  |  | 76 to 100% | 76 to 100% |
